Where a SMILES comes first, the peptide text is derived from it. [ ]: non-standard residue; d: D form. pGlu = O=C1CC[C@@H](C(=O)O)N1; dNle = CCCC[C@@H](N)C(=O)O; Nle = CCCC[C@H](N)C(=O)O; Aib = CC(C)(N)C(=O)O
Experiments:
[1] = biological target: T1, hAPJ (Homo sapiens, UniProt P35414); assay: hAPJ Calcium Flux Assay; format: cell-based; details: Chem-5 APJ stable cells, FLIPR calcium flux stimulation; read-out: hAPJ Ca^2+ Flux EC50
T1 sequence (P35414 1-380): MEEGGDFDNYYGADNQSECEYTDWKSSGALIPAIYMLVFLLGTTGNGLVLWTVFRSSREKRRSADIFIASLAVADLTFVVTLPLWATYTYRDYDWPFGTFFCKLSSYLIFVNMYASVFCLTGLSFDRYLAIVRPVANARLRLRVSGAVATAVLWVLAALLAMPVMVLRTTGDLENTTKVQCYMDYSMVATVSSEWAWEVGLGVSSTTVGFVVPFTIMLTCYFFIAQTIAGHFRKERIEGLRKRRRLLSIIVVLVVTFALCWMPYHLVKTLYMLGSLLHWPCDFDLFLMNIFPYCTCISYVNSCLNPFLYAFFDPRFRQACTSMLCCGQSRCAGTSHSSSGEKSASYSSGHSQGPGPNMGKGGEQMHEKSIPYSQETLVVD
Procedure: Chem-5 APJ stable cells (Millipore # HTS068C) were plated in 384-well format with 10,000 cells/well in 25 ul growth media, then grown 24 hours in a 37° C. tissue culture incubator. One hour before the assay, 25 ul/well FLIPR Calcium 4 dye (Molecular Devices R8142) with 2.5 mM probenecid was added, and cells were incubated one hour in a 37° C. tissue culture incubator. Peptides were solubilized in HBSS, HEPES & 0.1% BSA buffer, and serially-diluted 10-fold, from 50 uM to […], in triplicate. FLIPR Tetra was used to add peptide to the cells with dye (1:5, for final peptide concentrations ranging from 10 uM to […]). FLIPR dye inside the cells emitted fluorescence after binding to calcium, while fluorescence from outside the cells was masked. Fluorescence was measured using 470-495 excitation and 515-575 emission wavelengths on the FLIPR Tetra. Readings were done for 3 minutes total, beginning 10 seconds before the peptide addition. Maximum-minimum values were calculated and plotted for each peptide concentration, and GraphPad prism software was used to calculate EC50 values at the curve inflection points, for calcium flux stimulation by peptides.

[2] = Surrogate Activity-Based Plasma Stability Assay; format: in vitro ADME; details: rat, Surrogate activity-based Plasma stability t½
Procedure: Stability half-life was then calculated by the formula, t½=0.693÷k Surrogate Activity-Based Plasma Stability Assay: […]
2) Calculate slope of value above and […]

| SMILES | EC50 [1] | half-life [2] |
| --- | --- | --- |
| CCCC[C@@H](NC(=O)[C@@H]1CCCN1C(=O)CNC(=O)[C@H](CCCCN)NC(=O)C(C)(C)NC(=O)[C@H](CO)NC(=O)[C@H](CC(C)C)NC(=O)[C@H](CCCNC(=N)N)NC(=O)[C@@H]1CCCN1C(=O)[C@H](CCCNC(=N)N)NC(=O)[C@@H]1CCC(=O)N1)C(=O)N[C@H](C)C(=O)N[C@@H](Cc1ccccc1)C(=O)O [Example 37, pE-R-P-R-L-S-Aib-K-G-P-nle-a-F-OH] ([pGlu]RPRLS[Aib]KGP[dNle][dA]F-OH) | 3.9 nM | 8.72 h |
| CCCC[C@H](NC(=O)[C@@H]1CCCN1C(=O)CNC(=O)[C@H](CCCCN)NC(=O)C(C)(C)NC(=O)[C@H](CO)NC(=O)[C@H](CC(C)C)NC(=O)[C@H](CCCNC(=N)N)NC(=O)[C@@H]1CCCN1C(=O)[C@H](CCCNC(=N)N)NC(=O)[C@@H]1CCC(=O)N1)C(=O)N[C@H](C)C(=O)N[C@H](Cc1ccccc1)C(=O)O [Example 38, pE-R-P-R-L-S-Aib-K-G-P-Nle-a-f-OH] ([pGlu]RPRLS[Aib]KGP[Nle][dA][dF]-OH) | 3.3 nM | > 16.7 h |
| CCCC[C@H](NC(=O)[C@@H]1CCCN1C(=O)CNC(=O)[C@H](CCCCN)NC(=O)[C@H](Cc1c[nH]cn1)NC(=O)[C@@H](C)NC(=O)[C@H](CC(C)C)NC(=O)[C@H](CCCNC(=N)N)NC(=O)[C@@H]1CCCN1C(=O)[C@H](CCCNC(=N)N)NC(=O)[C@@H]1CCC(=O)N1)C(=O)N[C@H](C)C(=O)N[C@@H](Cc1ccccc1)C(=O)O [Example 39, pE-R-P-R-L-a-H-K-G-P-Nle-a-F-OH] | 4.5 nM | 14.8 h |
| CCCC[C@@H](NC(=O)[C@@H]1CCCN1C(=O)CNC(=O)[C@H](CCCCN)NC(=O)C(C)(C)NC(=O)[C@H](CO)NC(=O)[C@H](CC(C)C)NC(=O)[C@H](CCCNC(=N)N)NC(=O)[C@@H]1CCCN1C(=O)[C@H](CCCNC(=N)N)NC(=O)[C@@H]1CCC(=O)N1)C(=O)N[C@H](C)C(=O)N[C@H](Cc1ccccc1)C(=O)O [Example 40, pE-R-P-R-L-S-Aib-K-G-P-nle-a-f-OH] ([pGlu]RPRLS[Aib]KGP[dNle][dA][dF]-OH) | 2 nM | > 16.7 h |
| CCCC[C@H](NC(=O)[C@@H]1CCCN1C(=O)CNC(=O)[C@H](CCCCN)NC(=O)C(C)(C)NC(=O)[C@H](CO)NC(=O)[C@H](CC(C)C)NC(=O)[C@H](CCCNC(=N)N)NC(=O)[C@@H]1CCCN1C(=O)[C@H](CCCNC(=N)N)NC(=O)[C@@H]1CCC(=O)N1)C(=O)N1CCC[C@H]1C(=O)N[C@H](Cc1ccccc1)C(=O)O [Example 41, pE-R-P-R-L-S-Aib-K-G-P-Nle-P-f-OH] | 4.5 nM | 0.703 h |
| CCCC[C@H](NC(=O)[C@@H]1CCCN1C(=O)CNC(=O)[C@H](CCCCN)NC(=O)C(C)(C)NC(=O)[C@H](CO)NC(=O)[C@H](CC(C)C)NC(=O)[C@H](CCCNC(=N)N)NC(=O)[C@@H]1CCCN1C(=O)[C@H](CCCNC(=N)N)NC(=O)[C@@H]1CCC(=O)N1)C(=O)N[C@H](C)C(=O)N[C@@H](Cc1ccccc1)C(=O)O [Example 42, pE-R-P-R-L-S-Aib-K-G-P-Nle-a-F-OH] ([pGlu]RPRLS[Aib]KGP[Nle][dA]F-OH) | 2.4 nM | > 16.7 h |
| CCCC[C@@H](NC(=O)[C@@H]1CCCN1C(=O)CNC(=O)[C@H](CCCCN)NC(=O)[C@H](Cc1c[nH]cn1)NC(=O)[C@@H](C)NC(=O)[C@H](CC(C)C)NC(=O)[C@H](CCCNC(=N)N)NC(=O)[C@@H]1CCCN1C(=O)[C@H](CCCNC(=N)N)NC(=O)[C@@H]1CCC(=O)N1)C(=O)N1CCC(Oc2ccccc2)CC1 [Example 43, pE-R-P-R-L-a-H-K-G-P-nle-(4-Phenoxypiperidin-1-yl)] | 2 nM | 2.97 h |
| CCCC[C@@H](NC(=O)[C@@H]1CCCN1C(=O)CNC(=O)[C@H](CCCCN)NC(=O)[C@H](Cc1c[nH]cn1)NC(=O)[C@@H](CC)NC(=O)[C@H](CC(C)C)NC(=O)[C@H](CCCNC(=N)N)NC(=O)[C@@H]1CCCN1C(=O)[C@H](CCCNC(=N)N)NC(=O)[C@@H]1CCC(=O)N1)C(=O)N[C@H](C)C(=O)N[C@H](Cc1ccccc1)C(=O)O [Example 44, pE-R-P-R-L-abu-H-K-G-P-nle-a-f-OH] | 3 nM | 9.25 h |
| CCCC[C@@H](NC(=O)[C@@H]1CCCN1C(=O)CNC(=O)[C@H](CCCCN)NC(=O)[C@H](Cc1c[nH]cn1)NC(=O)[C@@H](C)NC(=O)[C@H](CC(C)C)NC(=O)[C@H](CCCNC(=N)N)NC(=O)[C@@H]1CCCN1C(=O)[C@H](CCCNC(=N)N)NC(=O)[C@@H]1CCC(=O)N1)C(=O)N[C@H](CC)C(=O)N[C@H](Cc1ccccc1)C(=O)O [Example 45, pE-R-P-R-L-a-H-K-G-P-nle-abu-f-OH] | 2.4 nM | > 16.7 h |
| CCCC[C@@H](NC(=O)[C@@H]1CCCN1C(=O)CNC(=O)[C@H](CCCCN)NC(=O)[C@@H](Cc1ccccc1)NC(=O)[C@@H](C)NC(=O)[C@H](CC(C)C)NC(=O)[C@H](CCCNC(=N)N)NC(=O)[C@@H]1CCCN1C(=O)[C@H](CCCNC(=N)N)NC(=O)[C@@H]1CCC(=O)N1)C(=O)N[C@H](C)C(=O)N[C@H](Cc1ccccc1)C(=O)O [Example 46, pE-R-P-R-L-a-f-K-G-P-nle-a-f-OH] ([pGlu]RPRL[dA][dF]KGP[dNle][dA][dF]-OH) | 9.2 nM | 8.87 h |
| CCCC[C@@H](NC(=O)[C@@H]1CCCN1C(=O)CNC(=O)[C@H](CCCCN)NC(=O)[C@H](CC(C)C)NC(=O)[C@@H](C)NC(=O)[C@H](CC(C)C)NC(=O)[C@H](CCCNC(=N)N)NC(=O)[C@@H]1CCCN1C(=O)[C@H](CCCNC(=N)N)NC(=O)[C@@H]1CCC(=O)N1)C(=O)N[C@H](C)C(=O)N[C@H](Cc1ccccc1)C(=O)O [Example 47, pE-R-P-R-L-a-L-K-G-P-nle-a-f-OH] ([pGlu]RPRL[dA]LKGP[dNle][dA][dF]-OH) | 4.4 nM | > 16.7 h |
| CCCC[C@@H](NC(=O)[C@@H]1CCCN1C(=O)CNC(=O)[C@H](CCCCN)NC(=O)[C@@H](C)NC(=O)[C@@H](C)NC(=O)[C@H](CC(C)C)NC(=O)[C@H](CCCNC(=N)N)NC(=O)[C@@H]1CCCN1C(=O)[C@H](CCCNC(=N)N)NC(=O)[C@@H]1CCC(=O)N1)C(=O)N[C@H](C)C(=O)N[C@H](Cc1ccccc1)C(=O)O [Example 48, pE-R-P-R-L-a-a-K-G-P-nle-a-f-OH] ([pGlu]RPRL[dA][dA]KGP[dNle][dA][dF]-OH) | 16.1 nM | 4.13 h |
| CCCC[C@@H](NC(=O)[C@@H]1CCCN1C(=O)CNC(=O)[C@H](CCCCN)NC(=O)[C@H](Cc1c[nH]cn1)NC(=O)[C@@H](C)NC(=O)[C@H](CC(C)C)NC(=O)[C@H](CCCNC(=N)N)NC(=O)[C@@H](C)NC(=O)[C@H](CCCNC(=N)N)NC(=O)[C@@H]1CCC(=O)N1)C(=O)N[C@H](C)C(=O)N[C@H](Cc1ccccc1)C(=O)O [Example 49, pE-R-a-R-L-a-H-K-G-P-nle-a-f-OH] ([pGlu]R[dA]RL[dA]HKGP[dNle][dA][dF]-OH) | 623 nM | > 16.7 h |
| CCCC[C@@H](NC(=O)[C@@H]1CCCN1C(=O)CNC(=O)[C@H](CCCCN)NC(=O)[C@H](Cc1c[nH]cn1)NC(=O)[C@@H](C)NC(=O)[C@H](CC(C)C)NC(=O)[C@H](CCCNC(=N)N)NC(=O)[C@@H]1CCCN1C(=O)[C@@H](N)CCCNC(=N)N)C(=O)N[C@H](Cc1ccccc1)C(=O)O [Example 50, H-R-P-R-L-a-H-K-G-P-nle-f-OH] (H-RPRL[dA]HKGP[dNle][dF]-OH) | 1.4 nM | 0.183 h |
